Target: T1, Hydroxyproline dehydrogenase (Homo sapiens, UniProt Q9UF12)
T1 sequence (Q9UF12 whole entry): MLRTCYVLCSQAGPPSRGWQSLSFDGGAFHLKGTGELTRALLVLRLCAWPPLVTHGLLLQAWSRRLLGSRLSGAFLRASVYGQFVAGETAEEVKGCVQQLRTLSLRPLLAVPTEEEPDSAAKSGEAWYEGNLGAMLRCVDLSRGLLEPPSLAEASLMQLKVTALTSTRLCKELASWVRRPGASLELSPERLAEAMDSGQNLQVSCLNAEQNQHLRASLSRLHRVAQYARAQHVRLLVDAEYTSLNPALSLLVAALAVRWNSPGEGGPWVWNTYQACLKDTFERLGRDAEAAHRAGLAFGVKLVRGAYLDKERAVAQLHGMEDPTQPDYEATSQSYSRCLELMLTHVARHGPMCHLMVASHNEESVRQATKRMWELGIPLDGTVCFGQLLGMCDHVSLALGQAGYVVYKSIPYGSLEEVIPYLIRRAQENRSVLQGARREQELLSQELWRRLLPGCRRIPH
Test: Inhibition of human recombinant HYPDH expressed in Escherichia coli using hydroxyproline as substrate preincubated for 5 mins followed by substrate addition in presence of FAD as cofactor

- IC50: Nd(Insoluble)
Structure (SMILES): O=C(O)c1ccco1

Reference: ChEMBL document CHEMBL4418284, “Hypdh inhibitors and methods of use for the treatment of kidney stones” (2018)
